Assay results taken from patent US8993566B2, “Quinoline compound composing 1,2,4-triazine-dione and use thereof” (Wuhan Shengyun Biopharma Co., Ltd., priority 2012, dated 2015).
Values after ≈ are worked out from the molar mass of the structure shown.

Columns and labels:
[1] = system: human nonsmall-cell lung cancer cell H460; test: In vitro anti-tumor cell activity (MTT), H460; format: cell-based; conditions: H460 cells, MTT, 72 h, Bliss method; for IC50: Homo sapiens, NCI-H460, read-out: H460 IC50
Procedure, shortened: (§1)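 Cells seeded at 10^4 cells/well and grown 24 h were exposed to compounds for 72 h. Viability was read by MTT (0.5 mg/mL, 4 h) with formazan dissolved in DMSO, and IC50 was derived by the Bliss method.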

[2] = system: human hepatoma carcinoma cell line SMMC-7721; test: In vitro anti-tumor cell activity (MTT), SMMC-7721; format: cell-based; conditions: SMMC-7721 cells, MTT, 72 h, Bliss method; for IC50: Homo sapiens, read-out: SMMC-7721 IC50
Procedure, shortened: as §1

[3] = system: human gastric cancer cell MKN-45; test: In vitro anti-tumor cell activity (MTT), MKN-45; format: cell-based; conditions: MKN-45 cells, MTT, 72 h, Bliss method; for IC50: Homo sapiens, read-out: MKN-45 IC50
Procedure, shortened: as §1

[4] = biological target: T1, c-Met kinase (His-tagged recombinant human Met (amino acids 974-end)) (Homo sapiens, UniProt P08581); test: c-Met Enzyme Activity Inhibition Assay (ELISA); format: biochemical; conditions: 50 pM c-Met, 5 μM ATP, room temperature 20 min; for IC50: read-out: IC50 for inhibiting c-Met kinase (converted)
T1 construct: His-tagged recombinant human Met (amino acids 974-end); His
T1 sequence (P08581 956-1390): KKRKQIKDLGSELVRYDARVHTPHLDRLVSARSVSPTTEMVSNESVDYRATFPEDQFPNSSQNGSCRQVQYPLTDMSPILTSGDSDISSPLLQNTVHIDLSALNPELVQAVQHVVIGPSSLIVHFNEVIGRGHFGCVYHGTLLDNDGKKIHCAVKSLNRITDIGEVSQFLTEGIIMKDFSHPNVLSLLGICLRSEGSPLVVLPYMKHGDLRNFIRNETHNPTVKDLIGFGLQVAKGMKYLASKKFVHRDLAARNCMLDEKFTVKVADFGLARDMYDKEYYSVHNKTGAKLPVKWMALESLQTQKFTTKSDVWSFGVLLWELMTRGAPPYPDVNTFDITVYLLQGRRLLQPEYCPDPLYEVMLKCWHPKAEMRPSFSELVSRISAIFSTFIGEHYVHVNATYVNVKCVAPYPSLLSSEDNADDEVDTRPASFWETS
Procedure, shortened: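 Baculovirus-expressed His-tagged c-Met (974-end) at 50 pM with 5 μM ATP, 25 mM MOPS pH 7.4, MgCl2, MnCl2, vanadate, DTT, 1% DMSO, incubated 20 min at room temperature on POT-coated plate. Phosphorylated polymer detected with HRP-conjugated PY20 antibody, TMB read at 450 nm.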

[5] = system: human colon cancer cell HT-29; test: In vitro anti-tumor cell activity (MTT), HT-29; format: cell-based; conditions: HT-29 cells, MTT, 72 h, Bliss method; for IC50: Homo sapiens, read-out: HT-29 IC50
Procedure, shortened: as §1

Compound: N-[3-fluoro-4-[6-methoxy-7-[3-(4-methyl-1-piperidinyl)propyloxy]quinolin-4-oxy]phenyl]-2-(3-trifluoromethylphenyl)-4-methyl-3,5-dicarbonyl-2,3,4,5-tetrahydro-1,2,4-triazine-6-carboxamide [Example 24]
- H460 IC50 [1]: 0.28 µg/mL
- SMMC-7721 IC50 [2]: 0.61 µg/mL
- MKN-45 IC50 [3]: 0.093 µg/mL
- IC50 for inhibiting c-Met kinase [4]: 0.18 µg/mL
- HT-29 IC50 [5]: 0.5 µg/mL

Compound: COc1cc2c(Oc3ccc(NC(=O)c4nn(-c5ccc(F)cc5)c(=O)n(C)c4=O)cc3F)ccnc2cc1OCCCN1CCN(C)CC1 [Example 10, N-[3-fluoro-4-[6-methoxy-7-[3-(4-methyl-1-piperazinyl)propyloxy]quinolin-4-oxy]phenyl]-2-(4-fluorophenyl)-4-methyl-3,5-dioxo-2,3,4,5-tetrahydro-1,2,4-triazine-6-carboxamide]
- IC50 [1]: 0.0081 µg/mL (≈ 0.0118 µM)
- IC50 [2]: 0.11 µg/mL (≈ 0.16 µM)
- IC50 [3]: 0.0065 µg/mL (≈ 0.00945 µM)
- IC50 [4]: 106 nM
- IC50 [5]: 0.093 µg/mL (≈ 0.135 µM)

Compound: N-[3-fluoro-4-[7-methoxy-6-[3-(4-morpholinyl)propyloxy]quinolin-4-oxy]phenyl]-2-(2-fluorophenyl)-4-butyl-3,5-dioxo-2,3,4,5-tetrahydro-1,2,4-triazine-6-carboxamide [Example 29]
- H460 IC50 [1]: 0.0056 µg/mL
- SMMC-7721 IC50 [2]: 0.014 µg/mL
- MKN-45 IC50 [3]: 0.0009 µg/mL
- IC50 for inhibiting c-Met kinase [4]: 0.61 µg/mL
- HT-29 IC50 [5]: 0.12 µg/mL

Compound: N-[3-fluoro-4-[7-methoxy-6-[3-(1-piperidinyl)propyloxy]quinolin-4-oxy]phenyl]-2-(2-trifluoromethylphenyl)-4-allyl-3,5-dicarbonyl-2,3,4,5-tetrahydro-1,2,4-triazine-6-carboxamide [Example 37]
- H460 IC50 [1]: 1.7 µg/mL
- SMMC-7721 IC50 [2]: 2.3 µg/mL
- MKN-45 IC50 [3]: 0.12 µg/mL
- IC50 for inhibiting c-Met kinase [4]: 3.7 µg/mL
- HT-29 IC50 [5]: 0.88 µg/mL

Compound: N-[3-fluoro-4-[6-methoxy-7-(3-(4-methyl-1-piperazinyl)propyloxy)quinolin-4-oxy]phenyl]-2-(3-trifluoromethylphenyl)-4-methyl-3,5-dicarbamoyl-2,3,4,5-tetrahydro-1,2,4-triazine-6-carboxamide [Example 25]
- H460 IC50 [1]: 0.52 µg/mL
- SMMC-7721 IC50 [2]: 0.07 µg/mL
- MKN-45 IC50 [3]: 0.014 µg/mL
- IC50 for inhibiting c-Met kinase [4]: 1.01 µg/mL
- HT-29 IC50 [5]: 0.05 µg/mL

Compound: COc1cc2c(Oc3ccc(NC(=O)c4nn(-c5ccc(F)c(F)c5)c(=O)n(C)c4=O)cc3F)ccnc2cc1OCCCN1CCCCC1 [Example 17, N-[3-fluoro-4-[6-methoxy-7-[3-(1-piperidinyl)propyloxy]quinolin-4-oxy]phenyl]-2-(3,4-difluorophenyl)-4-methyl-3,5-dioxo-2,3,4,5-tetrahydro-1,2,4-triazine-6-carboxamide]
- IC50 [1]: 0.22 µg/mL (≈ 0.319 µM)
- IC50 [2]: 0.19 µg/mL (≈ 0.275 µM)
- IC50 [3]: 0.027 µg/mL (≈ 0.0391 µM)
- IC50 [4]: 420 nM
- IC50 [5]: 0.3 µg/mL (≈ 0.434 µM)
